Source: patent US10808041B2, “Lincosamides universal monoclonal antibody hybridoma cell strain and application thereof” (Jiangnan University, priority 2017, dated 2020)

System: lincosamides universal monoclonal antibody secreted by monoclonal cell strain CGMCC No. 14691
Assay: indirect competitive ELISA with coating antigen Lin-OVA
Format: binding, BALB/c mice
Conditions: lincosamides standard substances competing with coating antigen Lin-OVA
Procedure: The specific ELISA procedure was as follows:
Coating: the coating antigen was subjected to gradient dilution with a 0.05 M pH 9.6 carbonate buffer solution, and incubated at 37° C. for 2 h at 100 μL/well.
Washing: a solution in a plate was decanted, and 200 μL of a PBST solution was injected into each well, placed on a shaker to shake for 3 min, spin-dried, and washed 3 times. The following washing method was the same.
Blocking: After patting dry, 200 μL of a blocking buffer was added to each well, and incubated at a temperature of 37° C. for 2 h. After washing, the product was dried to be ready for use.
Color development: the ELISA plate was taken out, and fully washed, and then 100 μL of a color developing solution (the ratio of TMB to a substrate liquid is 1:5) was added to each well to react at a temperature of 37° C. for 15 min in the dark.
Stopping and determination: the ELISA plate was taken out, 50 μL of a stop solution (2 mol/L sulfuric acid) was added to each well to stop the reaction, and then the absorbance A450 of each well was determined by an ELISA reader.

CC[C@@H]1CCN[C@H](C(=O)N[C@@H]([C@H]2O[C@H](SC)[C@H](O)[C@@H](O)[C@H]2O)[C@H](C)Cl)C1 [pirlimycin]
half inhibition concentration (IC50) of the monoclonal antibody: 0.019314 µg/mL

CCC[C@@H]1C[C@@H](C(=O)N[C@@H]([C@H]2O[C@H](SC)[C@H](O)[C@@H](O)[C@H]2O)[C@@H](C)O)N(C)C1 [lincomycin]
half inhibition concentration (IC50) of the monoclonal antibody: 0.004339 µg/mL
